# pIC50: −log10 of the molar value.
# Legend:
# Format in all cases: cell-based
# [1] = biological target: T1, BTK (Homo sapiens, UniProt Q06187); assay: BTK degradation activity test in Mino cells; conditions: 16 h incubation, Western blot or Elisa
# T1 construct: endogenous in cells; host or cells: Mino cells
# Procedure, shortened: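 DC50 derived by curve fitting of BTK degradation rates versus untreated control across compound concentrations. Mino cells were exposed for 16 h; BTK levels in lysates, normalised via BCA protein, measured by Western blot or ELISA.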
# [2] = test system: OCI-LY10 cells; assay: Inhibitory activity on OCI-LY10 cell proliferation (MTS); conditions: Homo sapiens, 72 h
# Procedure: (§1) The anti-tumor efficacy of the compounds was tested by measuring their inhibitory effects on OCI-LY10 and Mino cell proliferation. OCI-LY10 and Mino cells were cultured in RPMI-1640 medium containing 10% fetal calf serum. OCI-LY10 and Mino cells were digested, inoculated in a 96-well plate at a cell concentration of 10000 cells/well, and incubated overnight at 37° C., 5% CO2. Compounds of different concentrations (1000 nM, 4-fold dilution, 8 points) were added to the 96-well plate and incubated for 72 h (LY10) or 168 h (Mino) at 37° C. and 5% CO2, and then 20 uL of MTS was added to each well. After incubation for 2 h, 25 μl of 10% SDS was added to each well to terminate the reaction. The absorbance at 490 nm and 650 nm were measured with a microplate reader. IC50 was calculated using GraphPad Prism 5.0.
# [3] = test system: Mino cells; assay: Inhibitory activity on Mino cell proliferation (MTS); conditions: Homo sapiens, 168 h incubation
# Procedure: as §1
# T1 sequence (Q06187 whole entry): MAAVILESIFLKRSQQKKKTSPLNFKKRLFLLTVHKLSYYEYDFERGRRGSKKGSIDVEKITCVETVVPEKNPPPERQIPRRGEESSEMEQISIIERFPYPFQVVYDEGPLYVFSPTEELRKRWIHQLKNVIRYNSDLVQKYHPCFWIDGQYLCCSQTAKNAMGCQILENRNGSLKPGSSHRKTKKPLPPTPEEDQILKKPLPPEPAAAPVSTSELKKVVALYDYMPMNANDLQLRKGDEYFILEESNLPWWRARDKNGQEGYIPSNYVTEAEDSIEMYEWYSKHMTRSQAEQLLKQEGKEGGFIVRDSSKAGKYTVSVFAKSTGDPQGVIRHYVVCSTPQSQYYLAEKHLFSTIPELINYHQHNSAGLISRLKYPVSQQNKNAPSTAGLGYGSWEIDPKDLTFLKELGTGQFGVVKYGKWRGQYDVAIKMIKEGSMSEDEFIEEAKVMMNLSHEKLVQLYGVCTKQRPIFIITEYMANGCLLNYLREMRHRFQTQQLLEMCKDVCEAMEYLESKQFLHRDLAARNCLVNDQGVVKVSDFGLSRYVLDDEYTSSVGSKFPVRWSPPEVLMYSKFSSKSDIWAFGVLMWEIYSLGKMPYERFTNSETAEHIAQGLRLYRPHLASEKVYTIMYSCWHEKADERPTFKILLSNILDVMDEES
Structure (SMILES),DC50 [1],pIC50 [2],pIC50 [3]
"CN1CCN([C@@H]2CCCN(c3nnc(C(N)=O)c(Nc4ccc(N5CCN(CC#Cc6ccc(C(=O)NC7CCC(=O)NC7=O)nc6)CC5)c(F)c4)n3)C2)C1=O (stereo partly drawn) [Compound 224, 5-((4-(4-(3-(6-((2,6-dioxopiperidin-3-yl)carbamoyl)pyridin-3-yl)propan-2-yn-1-yl)piperazin-1-yl)-3-fluorophenyl)amino)-3-((R)-3-(3-methyl-2-oxoimidazolidin-1-yl)piperidin-1-yl)-1,2,4-triazin-6-carboxamide]",< 1 nM,8.65,
"CN1CCN([C@@H]2CCCN(c3ncc(C(N)=O)c(Nc4ccc(N5CCN(CC6CCN(c7ccc8c(c7)C(=O)N(C7CCC(=O)NC7=O)C8=O)C6)CC5)cc4)n3)C2)C1=O (stereo partly drawn) [Compound 115, 4-((4-(4-((1-(2-(2,6-dioxopiperidin-3-yl)-1,3-dioxoisoindolin-5-yl)pyrrolidin-3-yl)methyl)piperazin-1-yl)phenyl)amino)-2-((R)-3-(3-methyl-2-oxoimidazolin-1-yl)piperidin-1-yl)pyrimidin-5-carboxamide]",< 1 nM,9.23,8.22
"Cc1cc(N2CCC(CN3CCN(c4ccc(Nc5nc(N6CCC[C@@H](N7CCN(C)C7=O)C6)nnc5C(N)=O)cc4F)CC3)CC2)ccc1NC1CCC(=O)NC1=O (stereo partly drawn) [Compound 207, 5-((4-(4-((1-(4-((2,6-dioxopiperidin-3-yl)amino)-3-methylphenyl)piperidin-4-yl)methyl)piperazin-1-yl)-3-fluorophenyl)amino)-3-((R)-3-(3-methyl-2-oxoimidazolidin-1-yl)piperidin-1-yl)-1,2,4-triazin-6-carboxamide]",< 1 nM,9.64,
"CN1CCN([C@@H]2CCCN(c3nnc(C(N)=O)c(Nc4ccc(N5CCN(CC6CCN(c7ccc8c9c(oc8c7)C(=O)N(C7CCC(=O)NC7=O)C9)CC6)CC5)c(F)c4)n3)C2)C1=O (stereo partly drawn) [Compound 223, 5-((4-(4-((1-(2-(2,6-dioxopiperidin-3-yl)-3-oxo-2,3-dihydro-H-benzofuro[2,3-c]pyrrol-6-yl)piperidin-4-yl)methyl)piperazin-1-yl)-3-fluorophenyl)amino)-3-((R)-3-(3-methyl-2-oxoimidazolidin-1-yl)piperidin-1-yl)-1,2,4-triazin-6-carboxamide]",< 1 nM,8.59,
"CN1CCN([C@@H]2CCCN(c3nnc(C(N)=O)c(Nc4ccc(N5CCC(CN6CCN(c7cc8c(cc7F)C(=O)N(C7CCC(=O)NC7=O)C8=O)CC6)CC5)cc4)n3)C2)C1=O (stereo partly drawn) [Compound 125, 5-((4-(4-((4-(2-(2,6-dioxopiperidin-3-yl)-6-fluoro-1,3-dioxoisoindolin-5-yl)piperazin-1-yl)methyl)piperidin-1-yl)phenyl)amino)-3-((R)-3-(3-methyl-2-oxoimidazolin-1-yl)piperidin-1-yl)-1,2,4-triazin-6-carboxamide]",< 1 nM,8.74,
"CN1CCN([C@@H]2CCCN(c3nnc(C(N)=O)c(Nc4ccc(N5CCN(CC#Cc6ccc7c(c6)n(C)c(=O)n7C6CCC(=O)NC6=O)CC5)c(F)c4)n3)C2)C1=O (stereo partly drawn) [Compound 227, 5-((4-(4-(3-(1-(2,6-dioxopiperidin-3-yl)-3-methyl-2-oxo-2,3-dihydro-1H-benzo[d]imidazol-5-yl)propan-2-yn-1-yl)piperazin-1-yl)-3-fluorophenyl)amino)-3-((R)-3-(3-methyl-2-oxoimidazolidin-1-yl)piperidin-1-yl)-1,2,4-triazin-6-carboxamide]",< 1 nM,9.57,
"CN1CCN([C@@H]2CCCN(c3nnc(C(N)=O)c(Nc4ccc(C5CCN(CC6CCN(c7ccc(N8CCC(=O)NC8=O)cc7)CC6)CC5)c(F)c4)n3)C2)C1=O [Compound 234, (R)-5-((4-(1-((1-(4-(2,4-dioxotetrahydropyrimidin-1(2H)-yl)phenyl)piperidin-4-yl)methyl)piperidin-4-yl)-3-fluorophenyl)amino)-3-(3-(3-methyl-2-oxoimidazolidin-1-yl)piperidin-1-yl)-1,2,4-triazin-6-carboxamide]",< 1 nM,8.75,
"Cc1cc(N2CCC(CN3CCC(c4ccc(Nc5nc(N6CCC[C@@H](N7CCN(C)C7=O)C6)nnc5C(N)=O)cc4)CC3)CC2)ccc1N1CCC(=O)NC1=O [Compound 236, (R)-5-((4-(1-((1-(4-(2,4-dioxotetrahydropyrimidin-1(2H)-yl)-3-methylphenyl)piperidin-4-yl)methyl)piperidin-4-yl)phenyl)amino)-3-(3-(3-methyl-2-oxoimidazolidin-1-yl)piperidin-1-yl)-1,2,4-triazin-6-carboxamide]",< 1 nM,9.20,

# Now from value to compound, other results behind:
DC50 [1],pIC50 [2],Structure (SMILES),pIC50 [3]
< 1 nM,9.68,"CN1CCN([C@@H]2CCCN(c3nnc(C(N)=O)c(Nc4ccc(C5CCN(CC6(C)CCN(c7ccc8c(c7)C(=O)N(C7CCC(=O)NC7=O)C8=O)C6)CC5)cc4)n3)C2)C1=O (stereo partly drawn) [Compound 120, 5-((4-(1-((1-(2-(2,6-dioxopiperidin-3-yl)-1,3-dioxoisoindolin-5-yl)-3-methylpyrrolidin-3-yl)methyl)piperidin-4-yl)phenyl)amino)-3-((R)-3-(3-methyl-2-oxoimidazolin-1-yl)piperidin-1-yl)-1,2,4-triazin-6-carboxamide]",8.75
< 1 nM,9.13,"CN1CCN([C@@H]2CCCN(c3nnc(C(N)=O)c(Nc4ccc(C5CCN(CC6(F)CCN(c7ccc8c(c7)C(=O)N(C7CCC(=O)NC7=O)C8=O)C6)CC5)cc4)n3)C2)C1=O (stereo partly drawn) [Compound 121, 5-((4-(1-((1-(2-(2,6-dioxopiperidin-3-yl)-1,3-dioxoisoindolin-5-yl)-3-fluoropyrrolidin-3-yl)methyl)piperidin-4-yl)phenyl)amino)-3-((R)-3-(3-methyl-2-oxoimidazolin-1-yl)piperidin-1-yl)-1,2,4-triazin-6-carboxamide]",8.43
< 1 nM,8.87,"CN1CCN([C@@H]2CCCN(c3nnc(C(N)=O)c(Nc4ccc(N5CCN(CC6CCN(c7ccc(N8CCC(=O)NC8=O)c(F)c7F)CC6)CC5)c(F)c4)n3)C2)C1=O [Compound 185, (R)-5-((4-(4-((1-(4-(2,4-dioxotetrahydropyrimidin-1(2H)-yl)-2,3-difluorophenyl)piperidin-4-yl)methyl)piperazin-1-yl)-3-fluorophenyl)amino)-3-(3-(3-methyl-2-oxoimidazolidin-1-yl)piperidin-1-yl)-1,2,4-triazin-6-carboxamide]",
< 1 nM,9.41,"CN1CCN([C@@H]2CCCN(c3nnc(C(N)=O)c(Nc4ccc(C5CCN(C(=O)C6CCN(c7ccc8c(c7)C(=O)N(C7CCC(=O)NC7=O)C8=O)C6)CC5)cc4)n3)C2)C1=O (stereo partly drawn) [Compound 127, 5-((4-(1-(1-(2-(2,6-dioxopiperidin-3-yl)-1,3-dioxoisoindolin-5-yl)pyrrolidin-3-carbonyl)piperidin-4-yl)phenyl)amino)-3-((R)-3-(3-methyl-2-oxoimidazolin-1-yl)piperidin-1-yl)-1,2,4-triazin-6-carboxamide]",8.69
< 1 nM,10.10,"CN1C(=O)N([C@@H]2CCCN(c3nnc(C(N)=O)c(Nc4ccc(C5CCN(CC6CCN(c7ccc8c(c7)C(=O)N(C7CCC(=O)NC7=O)C8=O)CC6)CC5)cc4)n3)C2)CC12CC2 (stereo partly drawn) [Compound 138, 5-((4-(1-((1-(2-(2,6-dioxopiperidin-3-yl)-1,3-dioxoisoindolin-5-yl)piperidin-4-yl)methyl)piperidin-4-yl)phenyl)amino)-3-((R)-3-(4-methyl-5-oxo-4,6-diazaspiro[2.4]heptan-6-yl)piperidin-1-yl)-1,2,4-triazin-6-carboxamide]",8.51
